Results on twelve molecules are retold here after article PMC5650337, “A peptidomimetic with a chiral switch is an inhibitor of epidermal growth factor receptor heterodimerization” (Oncotarget, 2017).

Like-named read-outs stand apart in the source and are kept apart here. Where a SMILES comes first, the peptide text is derived from it. Where only a bound is given, the exact number is not on record here.

One experiment relates to BT-474 breast tumors. The experiment in a line: Xenograft model of breast cancer. The experiment is classed as in vivo, athymic nude mice. The settings on record: BT-474 xenograft. The procedure:
All animals were handled according to the approved protocol from IACUC at the University of Louisiana at Monroe. Athymic nude mice (Foxn1nu/Foxn1+, female, 4–5 weeks) were purchased from Harlan Laboratories (Indianapolis, IN) and maintained in the ULM School of Pharmacy vivarium. After acclimatization of animals to the local environment, estrogen (17β-estradiol) pellets (0.72 mg, 90-day release) were implanted subcutaneously in the mice, under anesthesia. Tumors were induced in mice as described previously. Orthotopic injection of about three-million BT-474 cells suspended in the serum-free RPMI-1640 medium was done at the second left mammary fat pad. Mice were observed every day for tumor formation, and the tumor diameter was measured with calipers, and the tumor volume was calculated. When a tumor diameter of 3 mm was achieved, mice were randomly assigned to four groups of six. These groups contain negative control (vehicle control), positive control (lapatinib), and two treatment groups (compound 9 and 18). The mice were treated for 19 days. Compound 18 was administered near the base of the tumor at a dose of 4 mg/kg twice a week. Control groups received intratumor saline injections twice a week, and lapatinib was administered at 10 mg/kg once a week by intraperitoneal injection. The marker to end the experiments was based on tumor doubling time rather than tumor volume. Since tumor doubling time was 4 times in 19 days, experiments were stopped on the 19th day. Tumor-bearing mice were sacrificed, and three tumors per group were harvested and maintained at –80°C and the remaining three tumors were fixed in paraffin blocks. Microsections (5 µm) of paraffin fixed tumors were stained with hemotoxylin and eosin (H&E) and observed for necrosis by a pathologist. All data are presented as the mean ± SE. Statistical differences were evaluated by Mann-Whitney U test as well as one-way ANOVA analysis of data from different groups, and the criterion for statistical significance was p < 0.05.

The subject of experiment [1] is SKBR-3 cells. Set-up: method as in PMID 21887403, PMID 20919746, PMID 25346057, PMID 24222531, PMID 19703026. The settings on record: Table 2, compounds marked * reported earlier; read-out: Antiproliferative activity (IC50 µM) SKBR-3 cells; cited from earlier work.
Experiment [2] has as its system SKBR-3 cells.
Protocol: (§1) Cellular assays were performed using BT-474, SKBR-3, Calu-3, MCF-7, and MCF-10A cells (ATCC). Antiproliferative activity was measured by CellTiter-Glo®, [49] a luminescence-based cell viability assay. In a 96-well plate, 1 × 10^4 cells/well were seeded and incubated overnight at 37°C and 5% CO2. Stock solutions of peptidomimetics were prepared by dissolving 1.5 mg/mL of compounds in DMSO. Stock solution of the compounds were diluted using the serum-free medium to prepare solutions of different concentrations of compounds. Compounds in the medium were added to the wells in triplicate and incubated for 72 h. As controls, cells treated with 1% sodium dodecyl sulfate and 1% dimethyl sulfoxide were used. At the end of the experiment, CellTiter-Glo® reagent was added, and luminescence was measured by a plate reader. A dose response curve was generated using luminescence vs concentration of compounds and IC50 values were obtained using Prism® (GraphPad Software, La Jolla, CA). Experiments were repeated at least three times to obtain standard deviation values.
The next experiment has as its system MCF-7 cells. The experiment in a line: Antiproliferative activity (CellTiter-Glo). Format: cell-based. To be noted: breast cancer cells that do not overexpress HER2, 72 h. The source says: Erlotinib was from Sigma (Sigma-Aldrich Chemie GmbH).
The target in experiment [3] is T1, HER2 ECD (domains I to IV) (Homo sapiens, UniProt P04626).
T1 construct: Extracellular domains of proteins HER2, EGFR, HER3, and HER4 purchased from Leinco Technologies; purchased Leinco Technologies (St. Louis, MO)
The experiment in a line: Surface plasmon resonance analysis. The settings on record: protein immobilized on CM5 chip, substance as analyte. Format: binding. Here is the method: Surface plasmon resonance analysis was performed using GE X100. Extracellular domains of proteins HER2, EGFR, HER3, and HER4 purchased from Leinco Technologies (St. Louis, MO). […] Compound 18 and controls were used as analytes. Compound 18 at different concentrations (0 to 200 µM) was passed through an SPR chip, and binding kinetics were analyzed for each of the EGFR bindings. A blank subtracted sensorgram for compound 18 was represented.

For experiment [4], the target named is T2, HER2:HER3 dimerization in transfected U2OS cells (Homo sapiens, UniProt P04626).
T2 construct: host or cells: U2OS
As to the kind of experiment: Enzyme fragment complementation (PathHunter) assay. The experiment is classed as cell-based. The settings on record: for Inhibition of HER2:HER3 dimerization (PathHunter): in the presence of 0.3 µM NRG1. The procedure:
A Pathhunter assay kit was obtained from DiscoverX, and enzyme fragment complementation assay was carried out. U2OS cells transfected with HER3:HER2 were used for the assay. After cells were attached to the wells, they were incubated with compound 18 and controls at different concentration in the presence of neuregulin-1 (NRG-1) at 0.3 µM concentration. After 24 h of incubation, reagents were added, and luminescence was measured and compared with a control without any compound. A plot of luminescence versus concentration was obtained to measure the dimerization of HER3:HER2 and its inhibition by compound 18.

The next experiment has as its system BT-474 cells. The settings on record: read-out: IC50 BT-474 (+); HER2-overexpressing breast cancer cells, 72 h.
The next experiment has as its system SKOV-3 cells. To be noted: read-out: IC50 SKOV-3(+); HER2-overexpressing ovarian cancer cells, 72 h.
Another experiment concerns Calu-3 cells. The settings on record: read-out: IC50 Calu-3 (+); HER2-overexpressing lung cancer cells, 72 h.
In experiment [5] the target is T3, HER2:HER3 heterodimerization in tumor sections (Homo sapiens, UniProt P04626).
T3 construct: from tissue; host or cells: BT-474 xenograft tumours grown in athymic nude mice
As to the kind of experiment: PLA on xenograft tumor sections. The experiment is classed as in vivo, athymic nude mice. The procedure:
Western blot and PLA assay were carried out on tumor sections as described before. Immunoblot analysis was performed to evaluate the levels of total HER2 and phosphorylated HER2. Tumor sections were deparaffinized using xylene and rehydrated with decreasing concentrations of ethanol. Antigen retrieval on the microsections of the breast tumors was done in a steaming sodium citrate buffer (10 mM, 0.05% Tween-20, pH 6.0) for 5 min. The tumor sections were then used to analyze inhibition of HER2:HER3 dimerization using PLA.

The subject of experiment [6] is SKBR-3 cells. As to the kind of experiment: cells. The settings on record: Homo sapiens, SK-BR-3, 72 h, read-out: IC50 SKBR-3(+).
Protocol: as §1
The mark [7] stands for this setting: read-out: Antiproliferative activity (IC50 µM) SKBR-3 cells, Table 2, compound 18 and diastereoisomers.

Protocol for BT-474 cells: as §1
Protocol for Calu-3 cells: as §1
Protocol for SKOV-3 cells: as §1

Consider NH2-Arg-Anapa-Phe-Asp-OH [compound 9], for which the “Difference in delay of tumor growth between compound 18 and compound 9” value in the experiment on BT-474 breast tumors (4 mg/kg twice a week) was “not statistically significant”. In the experiment with SKBR-3 cells [1], the IC50 was 0.445 ± 0.032 µM.

For the molecule `N=C(N)NCCC[C@@H]1NC(=O)[C@H]2CCCN2C(=O)[C@@H]2CCCN2C(=O)[C@H](CCCNC(=N)N)NC(=O)C[C@@H](c2cccc3ccccc23)NC(=O)[C@H](Cc2ccccc2)NC(=O)[C@H](CC(=O)O)NC(=O)[C@H](CC(=O)O)NC(=O)[C@H](Cc2ccccc2)NC(=O)C[C@H](c2cccc3ccccc23)NC1=O` [compound 18-2, Cyclo(1,10)P^1p^2R^3(R-Anapa)^4F^5D^6D^7F^8(S-Anapa)^9R^10] (HELM PEPTIDE1{P.[dP].R.[O=C(C[C@@H](N[*:1])c1cccc2ccccc12)[*:2]].F.D.D.F.[O=C(C[C@H](N[*:1])c1cccc2ccccc12)[*:2]].R}$PEPTIDE1,PEPTIDE1,1:R1-10:R2$$$V2.0), the IC50 with SKBR-3 cells [2] (setting [7]) stood at 0.743 ± 0.35 µM.

Turning to `N=C(N)NCCC[C@@H]1NC(=O)[C@@H]2CCCN2C(=O)[C@H]2CCCN2C(=O)[C@H](CCCNC(=N)N)NC(=O)C[C@@H](c2cccc3ccccc23)NC(=O)[C@H](Cc2ccccc2)NC(=O)[C@H](CC(=O)O)NC(=O)[C@H](CC(=O)O)NC(=O)[C@H](Cc2ccccc2)NC(=O)C[C@@H](c2cccc3ccccc23)NC1=O` [compound 18-4, Cyclo(1,10)p^1P^2R^3(S-Anapa)^4F^5D^6D^7F^8(S-Anapa)^9R^10] (HELM PEPTIDE1{[dP].P.R.[O=C(C[C@H](N[*:1])c1cccc2ccccc12)[*:2]].F.D.D.F.[O=C(C[C@H](N[*:1])c1cccc2ccccc12)[*:2]].R}$PEPTIDE1,PEPTIDE1,1:R1-10:R2$$$V2.0), in the experiment on SKBR-3 cells [2] (setting [7]), the IC50 turned out to be 0.456 ± 0.13 µM.

“H2N-K(3-amino-biphenyl propionic acid)F-OH [CP, reference compound]”: the IC50 in the experiment on MCF-7 cells was above 100000 nM; with BT-474 cells, above 100000 nM; with SKBR-3 cells [2] (read-out: IC50 SKBR-3(+), HER2-overexpressing breast cancer cells, 72 h), above 100 µM; in the experiment on SKOV-3 cells, above 100000 nM; in the experiment on Calu-3 cells, above 100000 nM. In experiment [3], the “SPR binding to HER2 ECD” value is given as “no SPR response was observed”. The “Inhibition of HER2:HER3 dimerization (PathHunter)” value in experiment [4] is “did not inhibit HER2:HER3 dimerization”.

Take “Cyclo(1,10)GPR- (Anapa)FDEFWR [compound 20]”: the IC50 in the experiment with SKBR-3 cells [1] was above 100 µM.

On to Ac-f(Anapa)r-NH2 [compound 21], for which the “Inhibition of HER2:HER3 dimerization (PathHunter)” value in experiment [4] was “shown to inhibit HER2:HER3 dimerization”. Also, the IC50 with SKBR-3 cells [1] was 0.373 ± 0.15 µM.

Regarding neuregulin-1 [reference compound], the “Induction of HER2:HER3 dimerization (PathHunter)” value in [4] (agonist dose-response) was “concentration dependence of induction of dimerization”.

With `N=C(N)NCCC[C@@H]1NC(=O)[C@@H]2CCCN2C(=O)[C@H]2CCCN2C(=O)[C@H](CCCNC(=N)N)NC(=O)C[C@H](c2cccc3ccccc23)NC(=O)[C@H](Cc2ccccc2)NC(=O)[C@H](CC(=O)O)NC(=O)[C@H](CC(=O)O)NC(=O)[C@H](Cc2ccccc2)NC(=O)C[C@H](c2cccc3ccccc23)NC1=O` [compound 18-5, Cyclo(1,10)p^1P^2R^3(R-Anapa)^4F^5D^6D^7F^8(R-Anapa)^9R^10] (HELM PEPTIDE1{[dP].P.R.[O=C(C[C@@H](N[*:1])c1cccc2ccccc12)[*:2]].F.D.D.F.[O=C(C[C@@H](N[*:1])c1cccc2ccccc12)[*:2]].R}$PEPTIDE1,PEPTIDE1,1:R1-10:R2$$$V2.0), the IC50 in the experiment on SKBR-3 cells [2] (setting [7]) worked out at 12.8 ± 1.9 µM.

With NH2-Arg-Anapa-Phe-OH [compound 5], the IC50 in the experiment on SKBR-3 cells [1] was 0.396 ± 0.022 µM.

For the molecule `N=C(N)NCCC[C@@H]1NC(=O)[C@H]2CCCN2C(=O)[C@@H]2CCCN2C(=O)[C@H](CCCNC(=N)N)NC(=O)C[C@H](c2cccc3ccccc23)NC(=O)[C@H](Cc2ccccc2)NC(=O)[C@H](CC(=O)O)NC(=O)[C@H](CC(=O)O)NC(=O)[C@H](Cc2ccccc2)NC(=O)C[C@@H](c2cccc3ccccc23)NC1=O` [compound 18-1, Cyclo(1,10)P^1p^2R^3(S-Anapa)^4F^5D^6D^7F^8(R-Anapa)^9R^10] (HELM PEPTIDE1{P.[dP].R.[O=C(C[C@H](N[*:1])c1cccc2ccccc12)[*:2]].F.D.D.F.[O=C(C[C@@H](N[*:1])c1cccc2ccccc12)[*:2]].R}$PEPTIDE1,PEPTIDE1,1:R1-10:R2$$$V2.0), the IC50 in the experiment on SKBR-3 cells [2] (setting [7]) was above 50 µM.

With `N=C(N)NCCC[C@@H]1NC(=O)[C@H]2CCCN2C(=O)[C@@H]2CCCN2C(=O)[C@H](CCCNC(=N)N)NC(=O)C[C@@H](c2cccc3ccccc23)NC(=O)[C@H](Cc2ccccc2)NC(=O)[C@H](CC(=O)O)NC(=O)[C@H](CC(=O)O)NC(=O)[C@H](Cc2ccccc2)NC(=O)C[C@@H](c2cccc3ccccc23)NC1=O` [compound 18-3, Cyclo(1,10)P^1p^2R^3(S-Anapa)^4F^5D^6D^7F^8(S-Anapa)^9R^10] (HELM PEPTIDE1{P.[dP].R.[O=C(C[C@H](N[*:1])c1cccc2ccccc12)[*:2]].F.D.D.F.[O=C(C[C@H](N[*:1])c1cccc2ccccc12)[*:2]].R}$PEPTIDE1,PEPTIDE1,1:R1-10:R2$$$V2.0), the IC50 in the experiment with SKBR-3 cells [2] (setting [7]) was determined as 41.1 ± 3.2 µM.

With `CS(=O)(=O)CCNCc1ccc(-c2ccc3ncnc(Nc4ccc(OCc5cccc(F)c5)c(Cl)c4)c3c2)o1` [Lapatinib, reference compound], in the experiment with BT-474 breast tumors (19 days, 18 and 9 4 mg/kg twice a week intratumor, lapatinib 10 mg/kg once a week i.p.), the “Tumor growth versus vehicle” value was “significant delay in tumor growth”. In addition, in experiment [5], the “HER2:HER3 heterodimerization in tumor sections (PLA)” value was “red fluorescence due to dimerization of HER2:HER3”. The IC50 with SKBR-3 cells [6] was found to be 13 ± 3 nM.

As a reminder, the IC50 is the point on the concentration scale where inhibition reaches its midpoint.
